Assay results as given in patent US12077503B2, “Substituted cyclic amides and their use as herbicides” (FMC CORPORATION, priority 2015, dated 2024).

Legend:
Format in all cases: in vivo
[1] = system: ryegrass, Italian (Italian ryegrass, Lolium multiflorum); experiment: Test A preemergence; conditions: Lolium multiflorum, pre-emergence, 240 h, preemergence, 0 to 100 scale where 0 is no effect and 100 is complete control, read-out: Ryegrass, Italian plant response rating; for pest or weed control at 125 g/ha: 125 g ai/ha, visual injury rating, approximately 10 d; for pest or weed control at 500 g/ha: 500 g ai/ha
Outline: (§1)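 Treatment is preemergence as a directed soil spray after planting, or postemergence at the one- to two-leaf stage, with test chemical in a non-phytotoxic solvent mixture plus surfactant. Plants stay in the greenhouse about 10 d before visual injury scoring on a 0 to 100 scale versus untreated controls.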

[2] = system: Galium (catchweed bedstraw, Galium aparine); experiment: Test A postemergence; conditions: Galium, post-emergence, 240 h, postemergence; for pest or weed control at 125 g/ha: 125 g ai/ha, visual injury vs untreated controls after approx. 10 d, 0 = no effect, 100 = complete control, read-out: Galium plant response rating (0 to 100 scale); for pest or weed control at 500 g/ha: 500 g ai/ha, 0 to 100 scale, 0 is no effect, 100 is complete control, read-out: Galium plant response rating
Outline: as §1

[3] = system: Kochia (Kochia scoparia); experiment: Test A postemergence; conditions: Bassia scoparia, post-emergence, 240 h, postemergence; for pest or weed control at 125 g/ha: 125 g ai/ha, visual injury vs untreated controls after approx. 10 d, 0 = no effect, 100 = complete control, read-out: Kochia plant response rating (0 to 100 scale); for pest or weed control at 500 g/ha: 500 g ai/ha, 0 to 100 scale, 0 is no effect, 100 is complete control, read-out: Kochia plant response rating
Outline: as §1

[4] = system: barnyardgrass (Echinochloa crus-galli); experiment: Test A postemergence; conditions: Echinochloa crus-galli, post-emergence, 240 h, postemergence; for pest or weed control at 125 g/ha: 125 g ai/ha, visual injury vs untreated controls after approx. 10 d, 0 = no effect, 100 = complete control, read-out: Barnyardgrass plant response rating (0 to 100 scale); for pest or weed control at 500 g/ha: 500 g ai/ha, 0 to 100 scale, 0 is no effect, 100 is complete control, read-out: Barnyardgrass plant response rating
Outline: as §1

[5] = system: blackgrass (Alopecurus myosuroides); experiment: Test A postemergence; conditions: Alopecurus myosuroides, post-emergence, 240 h, postemergence; for pest or weed control at 125 g/ha: 125 g ai/ha, visual injury vs untreated controls after approx. 10 d, 0 = no effect, 100 = complete control, read-out: Blackgrass plant response rating (0 to 100 scale); for pest or weed control at 500 g/ha: 500 g ai/ha, 0 to 100 scale, 0 is no effect, 100 is complete control, read-out: Blackgrass plant response rating
Outline: as §1

[6] = system: corn (Zea mays); experiment: Test A postemergence; conditions: Zea mays, post-emergence, 240 h, postemergence; for plant injury at 125 g/ha: 125 g ai/ha, visual injury vs untreated controls after approx. 10 d, 0 = no effect, 100 = complete control, read-out: Corn plant response rating (0 to 100 scale); for plant injury at 500 g/ha: 500 g ai/ha, 0 to 100 scale, 0 is no effect, 100 is complete control, read-out: Corn plant response rating
Outline: as §1

[7] = system: giant foxtail (Setaria faberii); experiment: Test A postemergence; conditions: Setaria faberi, post-emergence, 240 h, postemergence; for pest or weed control at 125 g/ha: 125 g ai/ha, visual injury vs untreated controls after approx. 10 d, 0 = no effect, 100 = complete control, read-out: Foxtail, Giant plant response rating (0 to 100 scale); for pest or weed control at 500 g/ha: 500 g ai/ha, 0 to 100 scale, 0 is no effect, 100 is complete control, read-out: Foxtail, Giant plant response rating
Outline: as §1

[8] = system: pigweed (Amaranthus retroflexus); experiment: Test A postemergence; conditions: Amaranthus retroflexus, post-emergence, 240 h, postemergence; for pest or weed control at 125 g/ha: 125 g ai/ha, visual injury vs untreated controls after approx. 10 d, 0 = no effect, 100 = complete control, read-out: Pigweed plant response rating (0 to 100 scale); for pest or weed control at 500 g/ha: 500 g ai/ha, 0 to 100 scale, 0 is no effect, 100 is complete control, read-out: Pigweed plant response rating
Outline: as §1

[9] = system: ragweed (common ragweed, Ambrosia elatior); experiment: Test A postemergence; conditions: Ambrosia artemisiifolia, post-emergence, 240 h, postemergence; for pest or weed control at 125 g/ha: 125 g ai/ha, visual injury vs untreated controls after approx. 10 d, 0 = no effect, 100 = complete control, read-out: Ragweed plant response rating (0 to 100 scale); for pest or weed control at 500 g/ha: 500 g ai/ha, 0 to 100 scale, 0 is no effect, 100 is complete control, read-out: Ragweed plant response rating
Outline: as §1

[10] = system: ryegrass, Italian (Italian ryegrass, Lolium multiflorum); experiment: Test A postemergence; conditions: Lolium multiflorum, post-emergence, 240 h, postemergence; for pest or weed control at 125 g/ha: 125 g ai/ha, visual injury vs untreated controls after approx. 10 d, 0 = no effect, 100 = complete control, read-out: Ryegrass, Italian plant response rating (0 to 100 scale); for pest or weed control at 500 g/ha: 500 g ai/ha, 0 to 100 scale, 0 is no effect, 100 is complete control, read-out: Ryegrass, Italian plant response rating
Outline: as §1

[11] = system: wheat (Triticum aestivum); experiment: Test A postemergence; conditions: Triticum aestivum, post-emergence, 240 h, postemergence; for plant injury at 125 g/ha: 125 g ai/ha, visual injury vs untreated controls after approx. 10 d, 0 = no effect, 100 = complete control, read-out: Wheat plant response rating (0 to 100 scale); for plant injury at 500 g/ha: 500 g ai/ha, 0 to 100 scale, 0 is no effect, 100 is complete control, read-out: Wheat plant response rating
Outline: as §1

[12] = system: barnyardgrass (Echinochloa crus-galli); experiment: Test B flooded paddy test; conditions: Echinochloa crus-galli, 250 g ai/ha, Flood; 0 to 100 scale where 0 is no effect and 100 is complete control; read-out: Barnyardgrass plant response rating
Outline: (§2)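 Compound goes directly into floodwater once pots are flooded 3 cm above soil, targeting plants at two leaves; the water depth is then held for the test duration. Plants sit 13–15 d in a greenhouse and are rated visually, 100 denoting complete control.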

[13] = system: ducksalad (Heteranthera limosa); experiment: Test B flooded paddy test; conditions: Heteranthera limosa, 250 g ai/ha, Flood; 0 to 100 scale where 0 is no effect and 100 is complete control; read-out: Ducksalad plant response rating
Outline: as §2

[14] = system: rice (Oryra sativa); experiment: Test B flooded paddy test; conditions: Oryza sativa, 250 g ai/ha, Flood; 0 to 100 scale where 0 is no effect and 100 is complete control; read-out: Rice plant response rating
Outline: as §2

[15] = system: sedge, umbrella (small-flower umbrella sedge, Cyperus difformis); experiment: Test B flooded paddy test; conditions: Cyperus difformis, 250 g ai/ha, Flood; 0 to 100 scale where 0 is no effect and 100 is complete control; read-out: Sedge, Umbrella plant response rating
Outline: as §2

N#Cc1ccc([C@H]2CNC(=O)[C@@H]2C(=O)Nc2cccc(F)c2F)cc1 [Compound 1206]
pest or weed control at 125 g/ha [1]: 0%
pest or weed control at 500 g/ha [1]: 0%
pest or weed control at 125 g/ha [2]: 30%
pest or weed control at 500 g/ha [2]: 50%
pest or weed control at 125 g/ha [3]: 50%
pest or weed control at 500 g/ha [3]: 50%
pest or weed control at 125 g/ha [4]: 70%
pest or weed control at 500 g/ha [4]: 100%
pest or weed control at 125 g/ha [5]: 0%
pest or weed control at 500 g/ha [5]: 0%
plant injury at 125 g/ha [6]: 0%
plant injury at 500 g/ha [6]: 0%
pest or weed control at 125 g/ha [7]: 50%
pest or weed control at 500 g/ha [7]: 80%
pest or weed control at 125 g/ha [8]: 0%
pest or weed control at 500 g/ha [8]: 30%
pest or weed control at 125 g/ha [9]: 0%
pest or weed control at 500 g/ha [9]: 0%
pest or weed control at 125 g/ha [10]: 0%
pest or weed control at 500 g/ha [10]: 0%
plant injury at 125 g/ha [11]: 0%
plant injury at 500 g/ha [11]: 0%
pest or weed control at 250 g/ha [12]: 0%
pest or weed control at 250 g/ha [13]: 95%
pest or weed control at 250 g/ha [14]: 15%
pest or weed control at 250 g/ha [15]: 0%

CN1CC[C@H](c2ccc(C(F)(F)F)cc2)[C@@H](C(=O)Nc2ccccc2C(F)(F)F)C1=O [Compound 1224]
pest or weed control at 125 g/ha [1]: 0%
pest or weed control at 500 g/ha [1]: 20%
pest or weed control at 125 g/ha [2]: 0%
pest or weed control at 500 g/ha [2]: 40%
pest or weed control at 125 g/ha [3]: 0%
pest or weed control at 500 g/ha [3]: 0%
pest or weed control at 125 g/ha [4]: 70%
pest or weed control at 500 g/ha [4]: 90%
pest or weed control at 125 g/ha [5]: 0%
pest or weed control at 500 g/ha [5]: 0%
plant injury at 125 g/ha [6]: 0%
plant injury at 500 g/ha [6]: 0%
pest or weed control at 125 g/ha [7]: 30%
pest or weed control at 500 g/ha [7]: 70%
pest or weed control at 125 g/ha [8]: 0%
pest or weed control at 500 g/ha [8]: 20%
pest or weed control at 125 g/ha [9]: 0%
pest or weed control at 500 g/ha [9]: 0%
pest or weed control at 125 g/ha [10]: 0%
pest or weed control at 500 g/ha [10]: 0%
plant injury at 125 g/ha [11]: 0%
plant injury at 500 g/ha [11]: 0%
pest or weed control at 250 g/ha [12]: 0%
pest or weed control at 250 g/ha [13]: 70%
pest or weed control at 250 g/ha [14]: 0%
pest or weed control at 250 g/ha [15]: 0%
